According to article PMC9195458, “Identification of antimalarial targets of chloroquine by a combined deconvolution strategy of ABPP and MS-CETSA” (Military Medical Research, 2022):

What was measured:
[1] = biological target: T1, PfLDH (Plasmodium falciparum, UniProt Q76NM3); test: photo-affinity labelling, click TAMRA, in-gel fluorescence; format: binding; details: covalent photo-crosslink on UV 365 nm; recombinant protein; competed by excess CQ
T1 construct: gene PF3D7_1324900

[2] = biological target: T2, PfPGK (Plasmodium falciparum, UniProt P27362); test: as above; format: binding; details: covalent photo-crosslink on UV 365 nm; recombinant protein; competed by excess CQ
T2 construct: gene PGK
T2 sequence (P27362 1-416): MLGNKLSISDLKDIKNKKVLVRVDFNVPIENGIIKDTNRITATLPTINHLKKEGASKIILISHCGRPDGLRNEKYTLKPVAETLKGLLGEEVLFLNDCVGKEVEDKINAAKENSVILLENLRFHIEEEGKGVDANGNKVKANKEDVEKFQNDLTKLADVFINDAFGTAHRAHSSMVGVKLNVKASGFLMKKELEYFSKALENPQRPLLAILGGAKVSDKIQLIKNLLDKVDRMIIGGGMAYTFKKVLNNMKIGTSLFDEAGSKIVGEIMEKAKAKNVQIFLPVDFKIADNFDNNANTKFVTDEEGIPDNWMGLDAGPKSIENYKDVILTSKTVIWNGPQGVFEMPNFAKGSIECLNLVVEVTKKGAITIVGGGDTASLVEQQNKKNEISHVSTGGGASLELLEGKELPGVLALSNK

[3] = biological target: T3, PfOAT (Plasmodium falciparum, UniProt Q6LFH8); test: as above; format: binding; details: covalent photo-crosslink on UV 365 nm; recombinant protein; competed by excess CQ
T3 construct: gene OAT
T3 sequence (Q6LFH8 1-414): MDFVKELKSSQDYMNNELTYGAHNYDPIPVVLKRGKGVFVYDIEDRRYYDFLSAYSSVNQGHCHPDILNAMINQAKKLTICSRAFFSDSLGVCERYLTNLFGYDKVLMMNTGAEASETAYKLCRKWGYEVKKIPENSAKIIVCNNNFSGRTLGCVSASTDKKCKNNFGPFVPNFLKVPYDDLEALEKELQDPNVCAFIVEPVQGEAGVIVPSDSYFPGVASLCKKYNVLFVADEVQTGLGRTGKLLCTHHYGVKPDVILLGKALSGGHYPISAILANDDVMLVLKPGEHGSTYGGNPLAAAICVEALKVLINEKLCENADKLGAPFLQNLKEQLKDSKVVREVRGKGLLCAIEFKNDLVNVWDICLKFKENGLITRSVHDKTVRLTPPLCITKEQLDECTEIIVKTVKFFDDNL

[4] = biological target: T4, PfPyrK (Plasmodium falciparum, UniProt C6KTA4); test: as above; format: binding; details: covalent photo-crosslink on UV 365 nm; recombinant protein; competed by excess CQ
T4 construct: gene PF3D7_0626800
T4 sequence (C6KTA4 1-511): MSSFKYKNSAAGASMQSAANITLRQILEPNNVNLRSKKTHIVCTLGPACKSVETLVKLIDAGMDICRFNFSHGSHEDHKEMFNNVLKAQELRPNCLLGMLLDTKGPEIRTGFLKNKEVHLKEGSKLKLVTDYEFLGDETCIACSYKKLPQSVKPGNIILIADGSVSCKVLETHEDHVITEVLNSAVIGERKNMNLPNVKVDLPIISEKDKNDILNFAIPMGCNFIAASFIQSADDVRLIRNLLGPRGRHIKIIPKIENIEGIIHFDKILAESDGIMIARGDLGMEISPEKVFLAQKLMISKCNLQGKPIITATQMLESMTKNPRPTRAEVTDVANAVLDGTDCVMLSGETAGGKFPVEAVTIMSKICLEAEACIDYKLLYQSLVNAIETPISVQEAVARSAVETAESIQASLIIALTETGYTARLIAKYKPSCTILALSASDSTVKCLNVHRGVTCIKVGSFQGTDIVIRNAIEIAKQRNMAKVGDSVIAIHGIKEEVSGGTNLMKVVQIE

[5] = biological target: T5, PfTPI (Plasmodium falciparum, UniProt Q7KQM0); test: as above; format: binding; details: covalent photo-crosslink on UV 365 nm; recombinant protein; competed by excess CQ
T5 construct: gene TPI

[6] = biological target: T5, PfTPI; test: enzyme activity inhibition, dose-response; format: biochemical; details: recombinant protein
[7] = biological target: T6, plasmepsin IV (Plasmodium falciparum, UniProt Q8IM16); test: ITDR MS-CETSA thermal shift; format: biochemical; details: parasite lysate, CQ 0-300 µmol/L; heated at 37, 52 or 61 °C
T6 construct: gene PMIV; native protein in soluble parasite lysate

[8] = biological target: T3, PfOAT; test: SPR (BIAcore); format: binding; details: read-out: KCQ-PfOAT
[9] = biological target: T3, PfOAT; test: enzyme activity inhibition, dose-response; format: biochemical; details: recombinant protein
[10] = biological target: T2, PfPGK; test: enzyme activity inhibition, dose-response; format: biochemical; details: recombinant protein
[11] = biological target: T1, PfLDH; test: SPR (BIAcore); format: binding; details: read-out: KCQ-PfLDH
[12] = biological target: T7, plasmepsin II (Plasmodium falciparum, UniProt Q8I6V3); test: ITDR MS-CETSA thermal shift; format: biochemical; details: parasite lysate, CQ 0-300 µmol/L; heated at 37, 52 or 61 °C
T7 construct: gene PMII; native protein in soluble parasite lysate

[13] = biological target: T4, PfPyrK; test: enzyme activity inhibition, dose-response; format: biochemical; details: recombinant protein
[14] = biological target: T2, PfPGK; test: SPR (BIAcore); format: binding; details: read-out: KCQ-PfPGK
[15] = biological target: T5, PfTPI; test: SPR (BIAcore); format: binding; details: read-out: KCQ-PfTPI
[16] = biological target: T1, PfLDH; test: enzyme activity inhibition, dose-response; format: biochemical; details: recombinant protein
[17] = biological target: T8, falcilysin (Plasmodium falciparum, UniProt Q76NL8); test: ITDR MS-CETSA thermal shift; format: biochemical; details: parasite lysate, CQ 0-300 µmol/L; heated at 37, 52 or 61 °C
T8 construct: gene FLN; native protein in soluble parasite lysate
T8 sequence (Q76NL8 1-1193): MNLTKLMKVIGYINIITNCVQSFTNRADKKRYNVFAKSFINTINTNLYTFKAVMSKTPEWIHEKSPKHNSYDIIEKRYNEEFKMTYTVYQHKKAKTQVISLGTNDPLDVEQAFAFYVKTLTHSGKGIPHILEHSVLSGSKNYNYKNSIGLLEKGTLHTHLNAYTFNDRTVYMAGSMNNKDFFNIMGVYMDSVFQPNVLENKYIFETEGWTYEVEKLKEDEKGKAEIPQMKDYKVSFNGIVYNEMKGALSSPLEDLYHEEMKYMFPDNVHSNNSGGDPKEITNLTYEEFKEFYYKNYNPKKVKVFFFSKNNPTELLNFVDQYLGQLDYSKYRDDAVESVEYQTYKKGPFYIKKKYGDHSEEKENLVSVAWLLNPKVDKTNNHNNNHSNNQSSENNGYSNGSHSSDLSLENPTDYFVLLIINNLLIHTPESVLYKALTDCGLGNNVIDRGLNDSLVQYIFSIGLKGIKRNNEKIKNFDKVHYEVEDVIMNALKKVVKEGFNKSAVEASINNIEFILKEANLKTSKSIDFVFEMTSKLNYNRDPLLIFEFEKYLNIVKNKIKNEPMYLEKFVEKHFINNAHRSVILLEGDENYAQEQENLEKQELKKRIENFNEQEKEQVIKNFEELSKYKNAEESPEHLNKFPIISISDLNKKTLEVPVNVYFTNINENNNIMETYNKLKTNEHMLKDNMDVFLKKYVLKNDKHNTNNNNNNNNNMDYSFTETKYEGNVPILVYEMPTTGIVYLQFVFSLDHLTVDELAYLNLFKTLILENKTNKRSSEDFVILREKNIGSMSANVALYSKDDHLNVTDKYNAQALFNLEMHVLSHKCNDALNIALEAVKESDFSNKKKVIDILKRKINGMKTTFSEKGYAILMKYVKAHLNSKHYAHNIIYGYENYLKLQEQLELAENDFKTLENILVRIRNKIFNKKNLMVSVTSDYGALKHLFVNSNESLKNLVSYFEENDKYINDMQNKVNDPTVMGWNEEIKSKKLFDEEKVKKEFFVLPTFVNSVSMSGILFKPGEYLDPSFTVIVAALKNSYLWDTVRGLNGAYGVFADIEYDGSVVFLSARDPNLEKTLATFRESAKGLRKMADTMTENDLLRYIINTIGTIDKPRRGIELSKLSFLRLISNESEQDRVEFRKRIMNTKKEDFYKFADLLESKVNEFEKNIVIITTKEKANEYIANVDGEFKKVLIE

[18] = biological target: T4, PfPyrK; test: SPR (BIAcore); format: binding; details: read-out: KCQ-PfPyrK

T1 sequence (Q76NM3 1-316): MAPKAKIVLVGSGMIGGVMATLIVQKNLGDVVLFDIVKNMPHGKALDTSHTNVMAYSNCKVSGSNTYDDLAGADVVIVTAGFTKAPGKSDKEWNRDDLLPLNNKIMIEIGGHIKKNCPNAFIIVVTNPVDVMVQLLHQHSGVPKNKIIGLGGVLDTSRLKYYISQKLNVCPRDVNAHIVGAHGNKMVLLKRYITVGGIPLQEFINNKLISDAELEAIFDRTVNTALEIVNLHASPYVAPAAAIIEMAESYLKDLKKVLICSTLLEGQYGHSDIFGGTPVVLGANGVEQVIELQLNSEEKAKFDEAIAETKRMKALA
T5 sequence (Q7KQM0 whole entry): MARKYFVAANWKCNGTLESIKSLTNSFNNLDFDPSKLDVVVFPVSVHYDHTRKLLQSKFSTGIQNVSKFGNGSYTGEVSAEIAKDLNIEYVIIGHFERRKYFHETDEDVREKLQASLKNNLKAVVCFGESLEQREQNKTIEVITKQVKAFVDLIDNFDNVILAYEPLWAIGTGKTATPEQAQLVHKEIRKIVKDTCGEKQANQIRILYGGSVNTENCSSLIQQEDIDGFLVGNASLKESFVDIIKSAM
T6 sequence (Q8IM16 122-449): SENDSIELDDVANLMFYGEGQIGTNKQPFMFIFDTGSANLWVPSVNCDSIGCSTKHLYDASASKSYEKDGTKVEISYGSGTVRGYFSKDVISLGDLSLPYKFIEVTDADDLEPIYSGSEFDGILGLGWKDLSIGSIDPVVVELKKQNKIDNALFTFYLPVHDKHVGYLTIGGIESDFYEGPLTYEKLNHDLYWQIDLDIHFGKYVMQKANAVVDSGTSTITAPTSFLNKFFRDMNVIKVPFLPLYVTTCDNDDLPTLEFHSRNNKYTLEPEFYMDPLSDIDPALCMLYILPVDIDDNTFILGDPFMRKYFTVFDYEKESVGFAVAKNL
T7 sequence (Q8I6V3 125-453): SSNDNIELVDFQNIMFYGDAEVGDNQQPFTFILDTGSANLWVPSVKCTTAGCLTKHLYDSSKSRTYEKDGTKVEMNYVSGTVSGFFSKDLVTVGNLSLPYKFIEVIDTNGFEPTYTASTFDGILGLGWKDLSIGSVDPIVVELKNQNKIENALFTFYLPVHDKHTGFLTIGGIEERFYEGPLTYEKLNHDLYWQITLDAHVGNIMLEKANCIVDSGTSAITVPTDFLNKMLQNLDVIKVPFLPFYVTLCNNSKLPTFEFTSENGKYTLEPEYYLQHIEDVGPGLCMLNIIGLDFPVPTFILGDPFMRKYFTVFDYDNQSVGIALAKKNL

| SMILES | photo-affinity labelling, click TAMRA, in-gel fluorescence [1] | photo-affinity labelling, click TAMRA, in-gel fluorescence [2] | photo-affinity labelling, click TAMRA, in-gel fluorescence [3] | photo-affinity labelling, click TAMRA, in-gel fluorescence [4] | photo-affinity labelling, click TAMRA, in-gel fluorescence [5] | inhibition of enzymatic activity [6] | thermal shift [7] | Kd [8] | inhibition of enzymatic activity [9] | inhibition of enzymatic activity [10] | Kd [11] | thermal shift [12] | inhibition of enzymatic activity [13] | Kd [14] | Kd [15] | inhibition of enzymatic activity [16] | thermal shift [17] | Kd [18] |
| --- | --- | --- | --- | --- | --- | --- | --- | --- | --- | --- | --- | --- | --- | --- | --- | --- | --- | --- |
| C#CCOCCC1(CCOCc2cn(CCCCC(=O)N(CC)CCCC(C)Nc3ccnc4cc(Cl)ccc34)nn2)N=N1 (stereo not drawn) [CQP] | CQP specifically binds to recombinant PfLDH, PfOAT, PfPyrK, PfPGK, and PfTPI proteins | CQP specifically binds to recombinant PfLDH, PfOAT, PfPyrK, PfPGK, and PfTPI proteins | CQP specifically binds to recombinant PfLDH, PfOAT, PfPyrK, PfPGK, and PfTPI proteins | CQP specifically binds to recombinant PfLDH, PfOAT, PfPyrK, PfPGK, and PfTPI proteins | CQP specifically binds to recombinant PfLDH, PfOAT, PfPyrK, PfPGK, and PfTPI proteins |  |  |  |  |  |  |  |  |  |  |  |  |  |
| CCN(CC)CCCC(C)Nc1ccnc2cc(Cl)ccc12 (stereo not drawn) [CQ] |  |  |  |  |  | PfPGK (d) and PfTPI (e) proteins in vitro in a dose-dependent manner | plasmepsin II and plasmepsin IV also showed significant thermal shift | 1.91 µM | CQ inhibits the enzymatic activities of the recombinant PfLDH (a), PfOAT (b) | PfPGK (d) and PfTPI (e) proteins in vitro in a dose-dependent manner | 0.32 µM | plasmepsin II and plasmepsin IV also showed significant thermal shift | CQ inhibits the enzymatic activities of the recombinant PfLDH (a), PfOAT (b), PfPyrK (c) | 1.95 µM | 1.18 µM | CQ inhibits the enzymatic activities of the recombinant PfLDH (a) | falcilysin as well as other hemoglobin proteolytic enzymes | 0.85 µM |
